Laboratory results: publication PMC6920847, “2-Hydroxy-N-phenylbenzamides and Their Esters Inhibit Acetylcholinesterase and Butyrylcholinesterase” (Biomolecules, 2019)
Like-named read-outs stand apart in the source and are kept apart here.

What was measured:
[1] = target: T1, AChE from electric eel (EeAChE) (Electrophorus electricus, UniProt O42275); assay: Inhibition of AChE, modified Ellman's spectrophotometric method; format: biochemical, electric eel (Electrophorus electricus L.); conditions: for Selectivity AChE/BuChE: SI = IC50 for AChE/IC50 for BuChE, SI lower than 1 means selectivity for AChE
T1 construct: Acetylcholinesterase was obtained from electric eel (Electrophorus electricus L.); purchased Sigma-Aldrich (Prague, Czech Republic); host or cells: electric eel (natural source)
T1 sequence (O42275 24-633): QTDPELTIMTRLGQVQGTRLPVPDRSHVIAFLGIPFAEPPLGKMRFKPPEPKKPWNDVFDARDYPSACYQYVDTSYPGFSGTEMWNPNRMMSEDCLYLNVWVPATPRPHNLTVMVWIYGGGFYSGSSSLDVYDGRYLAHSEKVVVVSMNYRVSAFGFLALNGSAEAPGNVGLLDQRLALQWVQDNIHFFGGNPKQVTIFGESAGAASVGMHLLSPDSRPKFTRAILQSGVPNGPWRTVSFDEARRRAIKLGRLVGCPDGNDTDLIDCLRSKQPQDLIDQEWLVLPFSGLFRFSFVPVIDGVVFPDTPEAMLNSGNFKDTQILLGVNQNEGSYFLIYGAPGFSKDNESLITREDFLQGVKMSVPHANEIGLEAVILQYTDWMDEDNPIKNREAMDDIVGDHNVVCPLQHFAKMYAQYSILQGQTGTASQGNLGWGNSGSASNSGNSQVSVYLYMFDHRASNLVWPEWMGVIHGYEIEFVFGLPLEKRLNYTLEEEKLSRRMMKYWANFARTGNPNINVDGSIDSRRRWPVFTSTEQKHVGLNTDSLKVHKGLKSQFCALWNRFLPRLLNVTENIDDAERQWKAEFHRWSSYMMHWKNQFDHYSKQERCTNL
Procedure: (§1) The IC50 values were determined using the spectrophotometric Ellman’s method modified according to Zdražilová et al., which is a simple, rapid and direct method to determine the SH and -S-S- group content in proteins. This method is widely used for the screening of the efficiency of cholinesterases inhibitors. The enzymatic activity is measured indirectly by quantifying the concentration of the 5-thio-2-nitrobenzoic acid ion formed in the reaction between the thiol reagent 5,5′-dithio-bis(2-nitrobenzoic acid) and thiocholine, a product of substrate hydrolysis (i.e., acetylthiocholine; ATCH) by cholinesterases.
(§2) The enzyme activity in final reaction mixture (2000 µL) was 0.2 U/mL, concentration of acetylthiocholine (or butyrylthiocholine, BTCH) 40 µM and concentration of 5,5′-dithio-bis(2-nitrobenzoic acid) 0.1 mM for all reactions. The tested compounds were dissolved in DMSO and then diluted in demineralized water to the concentration of 1 µM. […] All measurements were carried in triplicate and the average values of reaction rate (v0-uninhibited reaction, vi-inhibited reaction) were used for construction of the dependence v0/vi vs. concentration of inhibitor. From obtained equation of regression curve, the value of IC50 was calculated (based on the definition of IC50).
(§3) Acetylcholinesterase was obtained from electric eel (Electrophorus electricus L.) and butyrylcholinesterase was from an equine serum.
(§4) Thirty-six benzamides 1–4l were evaluated as potential inhibitors of AChE from electric eel (EeAChE) and BuChE from equine serum (EqBuChE) using Ellman’s spectrophotometric method modified according to Zdražilová et al.. Their efficacy is expressed as IC50, i.e., the concentration required for 50% inhibition of the enzymatic activity. Based on inhibition of both cholinesterases, we calculated selectivity indexes (SI) as the ratio of IC50 value for AChE/IC50 value for BuChE to express the selectivity quantitatively (Table 1).

[2] = target: T2, BuChE from equine serum (EqBuChE) (Equus caballus, UniProt P81908); assay: Inhibition of BuChE, modified Ellman's spectrophotometric method; format: biochemical; conditions: mean ± SD, n = three experiments
T2 construct: butyrylcholinesterase was from an equine serum; purchased Sigma-Aldrich (Prague, Czech Republic); host or cells: equine serum (natural source)
T2 sequence (P81908 whole entry): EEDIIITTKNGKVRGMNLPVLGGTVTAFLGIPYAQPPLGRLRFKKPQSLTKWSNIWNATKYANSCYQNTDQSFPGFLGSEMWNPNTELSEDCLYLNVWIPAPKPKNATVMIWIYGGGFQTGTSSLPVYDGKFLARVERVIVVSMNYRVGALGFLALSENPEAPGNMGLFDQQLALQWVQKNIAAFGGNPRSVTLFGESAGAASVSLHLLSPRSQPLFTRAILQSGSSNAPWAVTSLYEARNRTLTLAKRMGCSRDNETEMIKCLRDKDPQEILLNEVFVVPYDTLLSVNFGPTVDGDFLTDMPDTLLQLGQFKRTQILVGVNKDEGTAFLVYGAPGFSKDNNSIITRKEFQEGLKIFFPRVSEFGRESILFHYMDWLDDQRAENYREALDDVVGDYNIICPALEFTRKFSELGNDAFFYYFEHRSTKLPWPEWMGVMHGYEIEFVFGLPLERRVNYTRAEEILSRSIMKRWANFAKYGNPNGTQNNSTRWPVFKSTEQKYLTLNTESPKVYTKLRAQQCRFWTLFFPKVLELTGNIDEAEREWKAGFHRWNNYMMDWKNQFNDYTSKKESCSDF
Procedure: as §1, §2, §3, §4

[3] = mean ± SD, n = three experiments, read-out: IC50 (EeAChE)

Row | Compound | IC50 [1] [µM] | Selectivity AChE/BuChE [1] | IC50 ([2]; IC50 (EqBuChE)) [µM] | IC50 [1, 3] [µM] | IC50 ([2]; read-out: IC50 (EqBuChE)) [µM]
1 | O=C(Nc1ccc(Cl)cc1)c1ccc(Cl)cc1O [Compound 3b] | 56.2 ± 3.23 | 0.37 | 152 ± 3.13 | – | –
2 | O=C(Nc1ccc(C(F)(F)F)cc1)c1ccc(Cl)cc1O [Compound 3k, 4-chloro-2-hydroxy-N-[4-(trifluoromethyl)phenyl]benzamide] | 60.3 ± 2.39 | 0.30 | 200 ± 2.02 | – | –
3 | O=C(Nc1cc(C(F)(F)F)cc(C(F)(F)F)c1)c1cc(Br)ccc1O [Compound 4l] | 48.5 ± 1.07 | 0.91 | 53.5 ± 3.2 | – | –
4 | O=C(Nc1cc(C(F)(F)F)cc(C(F)(F)F)c1)c1cc(Cl)ccc1O [Compound 2l] | – | 0.78 | – | 50.2 ± 0.88 | 64.4 ± 1.34
5 | O=C1c2ccc(Cl)cc2OP(=O)(c2ccccc2)N1c1ccc(C(F)(F)F)cc1 (racemic) [Compound 5d, (RS)-7-Chloro-2-phenyl-3-[4-(trifluoromethyl)phenyl]-3-hydrobenzo[e][1,3,2]oxazaphosphinin-4-one 2-oxide] | – | 1.93 | – | 48.1 ± 1.7 | 25 ± 0.3
6 | O=C(Nc1cccc(C(F)(F)F)c1)c1ccc(Cl)cc1O [Compound 3j] | 68.3 ± 3.78 | 0.42 | 163 ± 11.7 | – | –
7 | O=C(Nc1cccc(Br)c1)c1cc(Br)ccc1O [Compound 4f] | 69.7 ± 9.97 | 0.48 | 146 ± 3.53 | – | –
8 | O=C(Nc1cccc(F)c1)c1cc(Br)ccc1O [Compound 4h] | 54.4 ± 0.73 | 0.46 | 119 ± 2.53 | – | –
9 | O=C(Nc1ccc(Br)cc1)c1cc(Br)ccc1O [Compound 4g] | – | 0.63 | – | 70.3 ± 2.85 | 112 ± 1.79
10 | O=C(Nc1ccc(Br)cc1)c1cc(Cl)ccc1O [Compound 2g] | – | 0.49 | – | 58.2 ± 4.87 | 119 ± 6.65
11 | O=C(Nc1ccc(Br)cc1)c1ccc(Cl)cc1O [Compound 3g] | 58.3 ± 1.57 | 0.34 | 174 ± 4.02 | – | –
12 | O=C(Nc1cccc(Br)c1)c1cc(Cl)ccc1O [Compound 2f] | 50.03 ± 0.15 | 0.35 | 141 ± 1.13 | – | –
13 | O=C(Nc1cc(Cl)c(Cl)c(Cl)c1)c1ccc(Cl)cc1O [Compound 3e, 4-Chloro-N-(3,4,5-trichlorophenyl)-2-hydroxybenzamide] | – | 0.44 | – | 57.8 ± 4.05 | 132 ± 4.31
14 | O=C(Nc1cccc(C(F)(F)F)c1)c1cc(Cl)ccc1O [Compound 2j] | 54.41 ± 0.25 | 0.45 | 120 ± 3.02 | – | –
15 | O=C(Nc1cc(C(F)(F)F)cc(C(F)(F)F)c1)c1ccc(Cl)cc1O [Compound 3l] | – | 0.36 | – | 54.7 ± 2.05 | 150.5 ± 0.87
16 | O=C(Nc1cc(Cl)cc(Cl)c1)c1cc(Cl)ccc1O [Compound 2d, 5-Chloro-N-(3,5-dichlorophenyl)-2-hydroxybenzamide] | – | 0.41 | – | 46.2 ± 0.63 | 112 ± 7.98
17 | O=C(Nc1ccc(Cl)c(Cl)c1)c1cc(Cl)ccc1O [Compound 2c] | – | 0.33 | – | 60.8 ± 6.88 | 186 ± 15.7
18 | O=C(Nc1ccc(F)cc1)c1cc(Br)ccc1O [Compound 4i] | 61.2 ± 1.08 | 0.45 | 137 ± 1.47 | – | –
19 | O=C(Nc1cccc(F)c1)c1cc(Cl)ccc1O [Compound 2h] | 58.6 ± 3.98 | 0.38 | 154 ± 8.38 | – | –

Row | Compound | IC50 [1] [µM] | Selectivity AChE/BuChE [1] | IC50 ([2]; IC50 (EqBuChE)) [µM] | IC50 [1, 3] [µM] | IC50 ([2]; read-out: IC50 (EqBuChE)) [µM]
20 | O=C(Nc1ccc(F)cc1)c1ccc(Cl)cc1O [Compound 3i] | 62.8 ± 1.53 | 0.41 | 152 ± 7.58 | – | –
21 | O=C(Nc1cccc(Cl)c1)c1ccc(Cl)cc1O [Compound 3a] | 58.1 ± 1.2 | 0.43 | 134.3 ± 0.24 | – | –
22 | O=C1c2ccc(Cl)cc2OP(=S)(c2ccccc2)N1c1ccc(C(F)(F)F)cc1 (racemic) [Compound 5e, (RS)-7-Chloro-2-phenyl-3-[4-(trifluoromethyl)phenyl]-3-hydrobenzo[e][1,3,2]oxazaphosphinin-4-one 2-sulfide] | – | 0.37 | – | 63.5 ± 1.41 | 170 ± 13.6
23 | O=C(Nc1cc(Cl)cc(Cl)c1)c1cc(Br)ccc1O [Compound 4d, 5-Bromo-N-(3,5-dichlorophenyl)-2-hydroxybenzamide] | – | 0.24 | – | 33.1 ± 0.47 | 135.9 ± 0.14
24 | O=C(Nc1cccc(Cl)c1)c1cc(Cl)ccc1O [Compound 2a] | – | 0.26 | – | 59.5 ± 3.8 | 228 ± 11.3
25 | O=C(Nc1cc(Cl)c(Cl)c(Cl)c1)c1cc(Br)ccc1O [Compound 4e, 5-Bromo-N-(3,4,5-trichlorophenyl)-2-hydroxybenzamide] | – | 0.30 | – | 42.1 ± 2.41 | 140 ± 6.2
26 | O=C(Nc1cccc(Br)c1)c1ccc(Cl)cc1O [Compound 3f] | – | 0.36 | – | 60.03 ± 0.42 | 168 ± 2.06
27 | O=C(Nc1ccc(Cl)cc1)c1cc(Br)ccc1O [Compound 4b] | 85.8 ± 6.1 | 0.66 | 131 ± 3.99 | – | –
28 | O=C(Nc1ccc(Cl)c(Cl)c1)c1ccc(Cl)cc1O [Compound 3c] | – | 0.46 | – | 46.3 ± 0.56 | 100 ± 1.15
29 | O=C(Nc1cccc(F)c1)c1ccc(Cl)cc1O [Compound 3h] | 60.8 ± 1.74 | 0.42 | 146 ± 4.07 | – | –
30 | O=C(Nc1ccc(C(F)(F)F)cc1)c1cc(Br)ccc1O [Compound 4k] | 44.8 ± 3.44 | 0.33 | 134.8 ± 0.86 | – | –
31 | O=C(Nc1ccccc1)c1ccccc1O [Compound 1, salicylanilide] | – | 0.24 | – | 49.7 ± 3.73 | 206 ± 12.1
32 | O=C(Nc1cc(Cl)cc(Cl)c1)c1ccc(Cl)cc1O [Compound 3d, 4-Chloro-N-(3,5-dichlorophenyl)-2-hydroxybenzamide] | – | 0.36 | – | 50.15 ± 0.26 | 141 ± 2.8
33 | O=C(Nc1cccc(Cl)c1)c1cc(Br)ccc1O [Compound 4a] | 62 ± 6.48 | 0.46 | 134 ± 1.63 | – | –
34 | O=C(Nc1cc(Cl)c(Cl)c(Cl)c1)c1cc(Cl)ccc1O [Compound 2e, 5-Chloro-N-(3,4,5-trichlorophenyl)-2-hydroxybenzamide] | – | 0.50 | – | 51.06 ± 0.49 | 102.7 ± 0.97
35 | O=C(Nc1ccc(Cl)cc1)c1cc(Cl)ccc1O [Compound 2b] | 76.5 ± 2.17 | 0.45 | 170 ± 3.09 | – | –
36 | O=C(Nc1ccc(F)cc1)c1cc(Cl)ccc1O [Compound 2i] | 48.3 ± 8.9 | 0.36 | 133 ± 15.8 | – | –
37 | O=C(Nc1cccc(C(F)(F)F)c1)c1cc(Br)ccc1O [Compound 4j, 5-bromo-2-hydroxy-N-[3-(trifluoromethyl)phenyl]benzamide] | 42.67 ± 0.18 | 0.36 | 117 ± 2.23 | – | –
38 | O=C(Nc1ccc(Cl)c(Cl)c1)c1cc(Br)ccc1O [Compound 4c] | – | 0.50 | – | 60.8 ± 3.65 | 123 ± 7.2
